# “And” between values parts separate entries of the source, which are not always exact repeats. Identical values can stand only once.
# What was measured:
# Test in all cases: In vitro DCF-G processing assay (UPLC)
# Type in all cases: biochemical
# [1] = target: T1, Eubacterium eligens GUS (EeGUS) (Lachnospira eligens, UniProt C4Z6Z2); conditions: DCF-G as substrate, 400 µM; pH 6.5; 37 °C
# T1 sequence (C4Z6Z2 1-611): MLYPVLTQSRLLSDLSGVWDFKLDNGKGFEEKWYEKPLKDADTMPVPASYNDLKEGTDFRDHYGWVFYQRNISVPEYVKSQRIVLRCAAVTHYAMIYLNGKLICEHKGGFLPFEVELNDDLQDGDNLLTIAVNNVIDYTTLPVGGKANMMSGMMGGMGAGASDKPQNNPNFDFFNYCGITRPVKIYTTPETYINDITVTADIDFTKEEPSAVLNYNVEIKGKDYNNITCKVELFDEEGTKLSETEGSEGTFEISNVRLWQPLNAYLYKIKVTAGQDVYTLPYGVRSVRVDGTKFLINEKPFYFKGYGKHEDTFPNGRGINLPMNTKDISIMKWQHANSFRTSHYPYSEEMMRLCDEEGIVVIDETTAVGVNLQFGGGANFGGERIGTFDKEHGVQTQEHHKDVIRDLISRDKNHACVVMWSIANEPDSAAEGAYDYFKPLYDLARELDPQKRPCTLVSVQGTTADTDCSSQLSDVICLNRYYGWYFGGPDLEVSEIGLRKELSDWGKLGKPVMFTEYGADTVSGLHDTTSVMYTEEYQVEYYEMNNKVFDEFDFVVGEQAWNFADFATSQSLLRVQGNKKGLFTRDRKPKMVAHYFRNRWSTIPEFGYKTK
# [2] = target: T2, Lactobacillus rhamnosus GUS (LrGUS) (Lacticaseibacillus rhamnosus, UniProt A0A2A5L2J1); conditions: DCF-G as substrate, 400 µM; pH 4.5; 37 °C
# T2 sequence (A0A2A5L2J1 1-603): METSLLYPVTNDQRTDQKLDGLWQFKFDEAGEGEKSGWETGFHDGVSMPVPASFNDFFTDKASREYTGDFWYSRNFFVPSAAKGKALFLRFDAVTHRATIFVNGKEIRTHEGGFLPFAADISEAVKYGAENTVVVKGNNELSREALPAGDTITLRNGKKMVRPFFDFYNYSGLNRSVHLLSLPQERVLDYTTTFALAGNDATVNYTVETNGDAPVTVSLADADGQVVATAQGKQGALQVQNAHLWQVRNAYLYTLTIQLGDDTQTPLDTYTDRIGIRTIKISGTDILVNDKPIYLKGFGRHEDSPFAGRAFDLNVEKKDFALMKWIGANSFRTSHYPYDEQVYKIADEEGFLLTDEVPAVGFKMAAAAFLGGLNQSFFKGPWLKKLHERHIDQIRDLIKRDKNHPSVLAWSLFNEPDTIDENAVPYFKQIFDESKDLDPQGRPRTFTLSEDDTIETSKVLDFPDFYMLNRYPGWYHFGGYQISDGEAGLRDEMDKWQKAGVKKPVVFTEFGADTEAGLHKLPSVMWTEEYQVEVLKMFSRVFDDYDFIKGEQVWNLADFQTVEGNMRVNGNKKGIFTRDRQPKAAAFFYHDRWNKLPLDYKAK
# [3] = target: T3, Ruminococcus gnavus GUS (RgGUS) (Mediterraneibacter gnavus, UniProt A0A2N5PVZ8); conditions: DCF-G as substrate, 400 µM; pH 6.5; 37 °C
# T3 sequence (A0A2N5PVZ8 1-603): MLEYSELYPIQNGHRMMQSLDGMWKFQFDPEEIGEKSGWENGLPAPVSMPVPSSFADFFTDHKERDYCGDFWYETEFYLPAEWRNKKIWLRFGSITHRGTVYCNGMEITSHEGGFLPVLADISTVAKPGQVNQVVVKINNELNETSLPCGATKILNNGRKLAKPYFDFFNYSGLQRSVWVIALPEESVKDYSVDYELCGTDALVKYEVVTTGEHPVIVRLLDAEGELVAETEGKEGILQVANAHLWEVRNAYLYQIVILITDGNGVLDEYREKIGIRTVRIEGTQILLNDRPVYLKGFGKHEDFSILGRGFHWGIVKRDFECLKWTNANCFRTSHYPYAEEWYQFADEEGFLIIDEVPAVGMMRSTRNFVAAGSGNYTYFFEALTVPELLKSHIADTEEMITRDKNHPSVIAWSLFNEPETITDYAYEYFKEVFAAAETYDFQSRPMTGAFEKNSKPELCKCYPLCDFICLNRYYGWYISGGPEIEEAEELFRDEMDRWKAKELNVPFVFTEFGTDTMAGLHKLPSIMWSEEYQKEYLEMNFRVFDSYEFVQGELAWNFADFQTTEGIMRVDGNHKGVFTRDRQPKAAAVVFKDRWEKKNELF
# [4] = target: T4, Bacteroides dorei GUS (BdGUS) (Phocaeicola dorei, UniProt I9FNR0); conditions: DCF-G as substrate, 400 µM; pH 6.0; 37 °C
# T4 sequence (I9FNR0 21-875): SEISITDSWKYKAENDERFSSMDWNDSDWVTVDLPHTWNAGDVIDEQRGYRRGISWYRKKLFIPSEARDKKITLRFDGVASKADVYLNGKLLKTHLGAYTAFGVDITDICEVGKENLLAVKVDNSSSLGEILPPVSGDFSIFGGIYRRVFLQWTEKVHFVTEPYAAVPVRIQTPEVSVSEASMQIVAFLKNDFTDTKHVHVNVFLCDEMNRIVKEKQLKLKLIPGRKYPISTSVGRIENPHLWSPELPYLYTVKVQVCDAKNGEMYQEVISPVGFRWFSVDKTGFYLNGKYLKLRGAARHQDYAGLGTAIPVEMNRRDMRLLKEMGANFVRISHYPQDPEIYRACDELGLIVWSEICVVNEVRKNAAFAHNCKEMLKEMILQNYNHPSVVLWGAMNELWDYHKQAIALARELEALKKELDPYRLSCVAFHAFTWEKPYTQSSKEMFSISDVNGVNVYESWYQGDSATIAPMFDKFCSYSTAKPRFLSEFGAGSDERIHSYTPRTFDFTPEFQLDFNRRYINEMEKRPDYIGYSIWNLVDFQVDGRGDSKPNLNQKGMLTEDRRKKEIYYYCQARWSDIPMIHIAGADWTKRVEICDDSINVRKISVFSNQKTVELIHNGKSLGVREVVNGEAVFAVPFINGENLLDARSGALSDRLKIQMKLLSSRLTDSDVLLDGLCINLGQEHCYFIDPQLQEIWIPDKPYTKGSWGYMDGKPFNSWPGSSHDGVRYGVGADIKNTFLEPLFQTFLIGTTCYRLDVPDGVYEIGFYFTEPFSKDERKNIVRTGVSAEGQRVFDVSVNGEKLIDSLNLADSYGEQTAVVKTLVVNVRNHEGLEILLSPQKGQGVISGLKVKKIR
structure (smiles),measurement,setting,value
"O=C(Cc1ccccc1Nc1c(Cl)cccc1Cl)O[C@@H]1O[C@H](C(=O)O)[C@@H](O)[C@H](O)[C@H]1O [DCF-G, Diclofenac acyl β-D-glucuronide]",Apparent kcat,[1],138 s⁻¹ and 138 ± 2 s⁻¹
same,Apparent kcat,[2],10 s⁻¹ and 10 ± 1 s⁻¹
same,Apparent kcat,[3],24.0 s⁻¹ and 24.0 ± 0.5 s⁻¹
same,Apparent kcat,[4],9.8 ± 0.6 s⁻¹

# From publication PMC6351562, “Structure, function, and inhibition of drug reactivating human gut microbial β-glucuronidases” (Scientific Reports, 2019)
